Experimental data from ChEMBL document CHEMBL3396949, “Synthesis, biological evaluation and molecular docking study of novel piperidine and piperazine derivatives as multi-targeted agents to treat Alzheimer's disease” (Bioorg Med Chem, 2015).

How the values were obtained:
[1] = Antioxidant activity assessed as trolox equivalent of AAPH radical scavenging activity at 1 to 10 uM preincubated for 15 mins followed by AAPH challenge measured every min for 80 mins by ORAC-FL assay
[2] = Selectivity ratio of IC50 for equine serum BChE to IC50 for electric eel AChE
[3] = target: Amyloid-beta precursor protein (Homo sapiens) (UniProt P05067); experiment: Inhibition of self-mediated amyloid beta (1 to 42) (unknown origin) aggregation at 25 uM after 48 hrs by thioflavin T fluorescence assay relative to control
[4] = target: Cholinesterase (Equus caballus, UniProt P81908); experiment: Inhibition of equine serum BChE using butyrylthiocholine iodide as substrate incubated for 5 mins by Ellman's method
[5] = target: Acetylcholinesterase (Electrophorus electricus, UniProt O42275); experiment: Inhibition of electric eel AChE using acetylthiocholine iodide as substrate incubated for 5 mins by Ellman's method
[6] = target: Amyloid-beta precursor protein (Homo sapiens) (UniProt P05067); experiment: Ratio of curcumin to compound for self-mediated amyloid beta (1 to 42) (unknown origin) aggregation at 25 uM after 48 hrs by thioflavin T fluorescence assay relative to control
[7] = target: Acetylcholinesterase (Electrophorus electricus) (UniProt O42275); experiment: Ratio of donepezil IC50 to compound IC50 for electric eel AChE using acetylthiocholine iodide as substrate incubated for 5 mins by Ellman's method
Sequence of Acetylcholinesterase (Electrophorus electricus) (O42275 24-633 limits assumed): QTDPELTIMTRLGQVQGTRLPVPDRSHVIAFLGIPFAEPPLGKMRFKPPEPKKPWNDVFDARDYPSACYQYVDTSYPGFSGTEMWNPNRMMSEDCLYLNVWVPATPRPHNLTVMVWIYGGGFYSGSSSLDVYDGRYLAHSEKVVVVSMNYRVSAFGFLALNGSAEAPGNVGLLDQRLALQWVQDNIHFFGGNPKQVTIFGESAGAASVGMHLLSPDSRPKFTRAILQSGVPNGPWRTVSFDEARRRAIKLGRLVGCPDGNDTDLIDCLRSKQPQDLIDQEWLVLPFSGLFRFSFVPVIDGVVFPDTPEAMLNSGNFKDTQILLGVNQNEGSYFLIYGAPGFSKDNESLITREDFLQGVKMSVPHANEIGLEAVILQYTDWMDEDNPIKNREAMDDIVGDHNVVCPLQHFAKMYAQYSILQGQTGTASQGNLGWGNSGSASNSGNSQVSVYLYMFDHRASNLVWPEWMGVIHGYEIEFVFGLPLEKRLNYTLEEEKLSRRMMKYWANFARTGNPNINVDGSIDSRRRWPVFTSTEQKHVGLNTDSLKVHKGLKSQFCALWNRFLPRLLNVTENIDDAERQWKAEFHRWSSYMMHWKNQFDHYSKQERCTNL

Sequence of Amyloid-beta precursor protein (Homo sapiens) (P05067 whole entry): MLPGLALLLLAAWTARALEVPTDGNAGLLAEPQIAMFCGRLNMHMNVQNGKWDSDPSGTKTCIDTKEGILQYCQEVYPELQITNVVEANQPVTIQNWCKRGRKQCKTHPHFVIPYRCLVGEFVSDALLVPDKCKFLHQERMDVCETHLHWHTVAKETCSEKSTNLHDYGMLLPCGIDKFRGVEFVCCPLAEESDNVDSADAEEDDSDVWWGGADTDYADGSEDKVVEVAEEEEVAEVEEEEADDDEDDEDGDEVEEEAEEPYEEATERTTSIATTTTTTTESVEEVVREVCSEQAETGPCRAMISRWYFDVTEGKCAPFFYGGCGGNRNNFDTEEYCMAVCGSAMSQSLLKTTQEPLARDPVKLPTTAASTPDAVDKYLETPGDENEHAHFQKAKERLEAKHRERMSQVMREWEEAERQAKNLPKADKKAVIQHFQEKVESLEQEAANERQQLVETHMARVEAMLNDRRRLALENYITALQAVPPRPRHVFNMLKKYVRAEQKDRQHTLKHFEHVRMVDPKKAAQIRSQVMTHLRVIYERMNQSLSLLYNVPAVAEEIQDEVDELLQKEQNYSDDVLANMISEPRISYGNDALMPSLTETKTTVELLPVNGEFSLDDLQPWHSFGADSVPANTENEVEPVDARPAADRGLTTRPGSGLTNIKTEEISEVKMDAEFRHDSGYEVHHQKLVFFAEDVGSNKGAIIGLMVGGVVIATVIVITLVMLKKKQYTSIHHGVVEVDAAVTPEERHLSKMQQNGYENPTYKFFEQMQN
Sequence of Acetylcholinesterase (O42275 whole entry): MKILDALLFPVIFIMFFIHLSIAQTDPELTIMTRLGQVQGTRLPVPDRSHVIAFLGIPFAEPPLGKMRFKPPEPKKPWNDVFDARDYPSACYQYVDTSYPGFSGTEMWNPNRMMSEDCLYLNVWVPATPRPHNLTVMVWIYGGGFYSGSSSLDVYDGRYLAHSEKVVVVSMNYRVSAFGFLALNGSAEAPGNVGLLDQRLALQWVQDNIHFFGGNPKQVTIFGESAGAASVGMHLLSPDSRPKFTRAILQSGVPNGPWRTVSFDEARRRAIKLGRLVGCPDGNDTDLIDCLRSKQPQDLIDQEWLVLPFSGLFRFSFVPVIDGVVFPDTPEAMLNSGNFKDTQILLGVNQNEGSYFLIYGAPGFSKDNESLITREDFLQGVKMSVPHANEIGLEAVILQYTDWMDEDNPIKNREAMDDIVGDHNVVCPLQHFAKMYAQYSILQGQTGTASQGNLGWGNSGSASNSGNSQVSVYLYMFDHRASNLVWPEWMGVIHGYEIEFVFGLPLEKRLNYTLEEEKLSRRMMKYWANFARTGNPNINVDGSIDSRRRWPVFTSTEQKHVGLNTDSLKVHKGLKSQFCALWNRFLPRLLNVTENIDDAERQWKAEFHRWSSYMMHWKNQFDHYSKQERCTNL
Sequence of Cholinesterase (P81908 whole entry): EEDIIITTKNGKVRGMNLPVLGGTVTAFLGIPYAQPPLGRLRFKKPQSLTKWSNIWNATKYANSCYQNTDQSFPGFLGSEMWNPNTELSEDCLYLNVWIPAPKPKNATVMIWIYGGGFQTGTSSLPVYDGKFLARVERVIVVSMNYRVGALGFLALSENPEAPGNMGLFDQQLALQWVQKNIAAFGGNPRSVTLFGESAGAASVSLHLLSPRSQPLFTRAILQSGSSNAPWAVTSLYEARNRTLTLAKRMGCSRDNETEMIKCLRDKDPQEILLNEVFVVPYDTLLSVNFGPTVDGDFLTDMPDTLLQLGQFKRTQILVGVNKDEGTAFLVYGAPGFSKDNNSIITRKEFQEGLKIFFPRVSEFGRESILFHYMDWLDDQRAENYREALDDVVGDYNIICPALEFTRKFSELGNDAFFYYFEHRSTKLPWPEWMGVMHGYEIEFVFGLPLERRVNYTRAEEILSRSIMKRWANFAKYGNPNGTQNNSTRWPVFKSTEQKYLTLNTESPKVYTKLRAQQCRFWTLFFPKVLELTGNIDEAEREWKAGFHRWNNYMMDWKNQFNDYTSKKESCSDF

Structure (SMILES)	Activity [1] [equiv]	Ratio IC50 [2]	inhibition [3] [%]	IC50 [4] [nM]	IC50 [5] [nM]	Ratio [6]	Ratio IC50 [7]
COc1ccc(CNCCN2CCC(Cc3ccccc3)CC2)cc1OC	0.61	0.42	54.7	77.7	182	–	–
c1ccc(CN2CCN(CCNCc3cccnc3)CC2)cc1	1.02	0.92	56.8	129	140	–	–
COc1ccc(CNCCCCN2CCN(Cc3ccccc3)CC2)cc1OC	0.61	0.86	67.7	142	163	–	–
COc1cc(CNCCCCN2CCC(Cc3ccccc3)CC2)ccc1O	4.45	0.33	71.3	3.87	11.5	–	–
COc1ccc(CNCCCCN2CCC(Cc3ccccc3)CC2)cc1OC	1.06	0.24	80.7	49.1	202	1.51	–
COc1ccc(CNCCN2CCN(C(c3ccccc3)c3ccccc3)CC2)cc1OC	1.77	–	67.6	–	–	–	–
COc1cc(CNCCCCN2CCN(Cc3ccccc3)CC2)ccc1O	1.64	0.1	72.4	13.9	136	–	–
c1ccc(CC2CCN(CCNCc3cccnc3)CC2)cc1	1.32	3.07	84.4	101	32.8	1.51	–
COc1ccc(CNCCCCN2CCN(C(c3ccccc3)c3ccccc3)CC2)cc1OC	1.35	–	57.8	–	–	–	–
COc1cc(CNCCN2CCN(Cc3ccccc3)CC2)ccc1O	1.28	0.1	71.9	18.3	181	–	–
COc1cc(CNCCCN2CCN(Cc3ccccc3)CC2)ccc1O	1.99	1.38	67.2	18.8	13.5	–	–
COc1cc(CNCCCN2CCN(C(c3ccccc3)c3ccccc3)CC2)cc(OC)c1OC	2.47	–	68.2	–	–	–	–
c1ccc(CN2CCN(CCCCNCc3cccnc3)CC2)cc1	0.64	0.78	69.3	104	134	–	–
COc1cc(CNCCCN2CCN(C(c3ccccc3)c3ccccc3)CC2)ccc1O	2.68	–	54.2	–	–	–	–
COc1cc(CNCCN2CCN(Cc3ccccc3)CC2)cc(OC)c1OC	2.77	0.77	75.5	75.1	96.5	–	–
COc1cc(CNCCN2CCN(C(c3ccccc3)c3ccccc3)CC2)ccc1O	2.31	–	43.5	–	–	–	–

Structure (SMILES)	Activity [1] [equiv]	Ratio IC50 [2]	inhibition [3] [%]	IC50 [4] [nM]	IC50 [5] [nM]	Ratio [6]	Ratio IC50 [7]
COc1cc(CNCCCCN2CCN(C(c3ccccc3)c3ccccc3)CC2)cc(OC)c1OC	1.63	–	57.3	–	–	–	–
c1ccc(CN2CCN(CCCNCc3cccnc3)CC2)cc1	0.65	9.03	63	209	23.1	–	–
c1ccc(CC2CCN(CCCCNCc3cccnc3)CC2)cc1	1.59	4.4	78.6	34	7.72	1.51	6
COc1cc(CNCCCN2CCC(Cc3ccccc3)CC2)ccc1O	3.74	1.11	88	7.61	6.83	1.51	7
COc1cc(CNCCCN2CCN(Cc3ccccc3)CC2)cc(OC)c1OC	1.31	0.5	79.7	41.5	81.8	1.71	–
COc1cc(CNCCCCN2CCC(Cc3ccccc3)CC2)cc(OC)c1OC	2.45	1.3	85.4	16.7	12.8	1.51	–
COc1cc(CNCCCN2CCC(Cc3ccccc3)CC2)cc(OC)c1OC	1.41	2.69	78.2	23.1	8.56	1.51	–
c1ccc(CC2CCN(CCCNCc3cccnc3)CC2)cc1	1.18	38.4	88.8	81.7	2.13	1.51	22
COc1cc(CNCCN2CCC(Cc3ccccc3)CC2)ccc1O	4.04	0.1	84.4	4.2	38.3	1.51	–
COc1cc(CNCCCCN2CCN(Cc3ccccc3)CC2)cc(OC)c1OC	1.24	0.23	80.4	32.7	138	1.71	–
COc1ccc(CNCCCN2CCN(C(c3ccccc3)c3ccccc3)CC2)cc1OC	2.21	–	65.6	–	–	–	–
COc1cc(CNCCN2CCN(C(c3ccccc3)c3ccccc3)CC2)cc(OC)c1OC	2.38	–	68.7	–	–	–	–
COc1ccc(CNCCN2CCN(Cc3ccccc3)CC2)cc1OC	0.95	0.4	80.7	274	682	1.71	–
COc1cc(CNCCN2CCC(Cc3ccccc3)CC2)cc(OC)c1OC	1.38	1.48	75	53.4	35.8	–	–
COc1ccc(CNCCCN2CCC(Cc3ccccc3)CC2)cc1OC	1.22	2.52	84.4	190	75.3	1.51	–
COc1ccc(CNCCCN2CCN(Cc3ccccc3)CC2)cc1OC	1.4	2.94	79.7	331	112	1.71	–
